Assay results reported in patent US20050101542A1, “Combination therapy for controlling appetites” (Regents of the University of California, priority 2002, published 2005).

Columns and labels:
human PPARδ = molecular target: T1, human PPARδ (Homo sapiens, UniProt Q03181); assay: GAL4 chimeric receptor transactivation assay in HeLa cells, PPARδ; assay type: cell-based; conditions: read-out: EC50 for PPARβ activation
T1 construct: expressed in transfected cells; host or cells: HeLa (clonal reporter line HLR, stably transfected with pFA-PPARδ)
T1 sequence (Q03181 211-439 limits assumed): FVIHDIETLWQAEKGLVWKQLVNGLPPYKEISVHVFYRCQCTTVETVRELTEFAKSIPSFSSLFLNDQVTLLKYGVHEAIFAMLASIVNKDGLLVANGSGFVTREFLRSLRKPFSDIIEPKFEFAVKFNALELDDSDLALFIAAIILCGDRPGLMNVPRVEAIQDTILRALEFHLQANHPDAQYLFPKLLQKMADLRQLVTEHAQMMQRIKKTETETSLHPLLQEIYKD
Protocol: Eighteen hours following transfection, the culture media was replaced with supplemented DMEM containing hygromycin (100 μg-ml^−1, Calbiochem). After 4 weeks in culture, the surviving clones were isolated and analyzed by luciferase assay. […] The cells were cultured in supplemented DMEM containing hygromycin and G418. For transactivation assays, cells were seeded in 6-well plates (50,000 cells per well) and incubated for 7 hours in supplemented DMEM containing hygromycin and G418, plus appropriate concentrations of test compounds. Dual-luciferase reporter assay system (Promega) and an MLX Microtiter® plate luminometer (Dynex) were used to determine luciferase activity in cell lysates.

[1] = Conditioned taste aversion; assay type: in vivo, rat; conditions: 20 mg per kg i.p.
Protocol: Conditioned taste aversion. Rats were water-deprived for 24 h and then accustomed to drink from a graded bottle during a 30-min test period for four days. On day five, water was substituted with a 0.1% saccharin solution and, 30 min later, the animals received injections of vehicle, OEA (20 mg per kg) Or lithium chloride (0.4 M, 7.5 ml per kg). During the following two days, water consumption was recorded over 30-min test periods. The animals were then presented with water or saccharin, and drinking measured.

human PPARγ = molecular target: T2, human PPARγ (Homo sapiens, UniProt P37231); assay: GAL4 chimeric receptor transactivation assay in HeLa cells, PPARγ; assay type: cell-based
T2 construct: expressed in transfected cells; host or cells: HeLa (clonal reporter line HLR, stably transfected with pFA-PPARγ)
T2 sequence (P37231 238-503 limits assumed): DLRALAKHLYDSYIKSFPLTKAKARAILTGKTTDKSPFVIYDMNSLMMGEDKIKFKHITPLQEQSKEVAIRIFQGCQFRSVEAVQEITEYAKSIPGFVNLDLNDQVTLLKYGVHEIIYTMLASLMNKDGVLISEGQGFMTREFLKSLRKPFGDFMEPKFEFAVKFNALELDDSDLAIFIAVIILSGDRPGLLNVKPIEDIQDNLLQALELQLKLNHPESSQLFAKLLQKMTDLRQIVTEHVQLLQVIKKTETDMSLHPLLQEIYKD
Protocol: Transactivator plasmids pFA-PPARα, pFA-PPARδ, pFA-PPARγ and pFA-RXR, which encoded for the […] Of hPPARα ? ((499-1404), hPPARδ (412-1320), hPPARγ (610-1434) and hRXR (402-1389) fused to the DNA-binding domain (residues 1-147) Of yeast GAL4 under control of the human cytomegalovirus (CMV) promoter were generated. The plasmids contained a neomycin-resistance gene to provide stable selection with G418 (200 μg-ml^−1; Calbiochem). The HeLa cells were cultured in Dulbecco's-modified Eagles's medium (DMEM) supplemented with fetal bovine serum (10%). The cells were transfected with Fugene 6 (3 μl, Roche) Containing the pFR-luc plasmid (1 μg, Stratagene). Eighteen hours following transfection, the culture media was replaced with supplemented DMEM containing hygromycin (100 μg-ml^−1, Calbiochem). After 4 weeks in culture, the surviving clones were isolated and analyzed by luciferase assay. […] The cells were cultured in supplemented DMEM containing hygromycin and G418. For transactivation assays, cells were seeded in 6-well plates (50,000 cells per well) and incubated for 7 hours in supplemented DMEM containing hygromycin and G418, plus appropriate concentrations of test compounds. Dual-luciferase reporter assay system (Promega) and an MLX Microtiter® plate luminometer (Dynex) were used to determine luciferase activity in cell lysates. […]

[2] = Intracerebroventricular OEA on food intake in 24 h food-deprived rats; assay type: in vivo, rat; conditions: for food intake 60 min / food intake 120 min / food intake 240 min: 24 h food-deprived rats
Protocol: Feeding experiments. Acute experiments. Food intake was measured in 24-h food-deprived rats (Navarro, et al., J. Neurochem., 67:1982-1991 (1996)), administering drugs 15 min before food presentation. Subchronic experiments. Ad libitum fed rats received vehicle injections for three days. On day four, the animals were divided in two equal groups and gave them daily injections of vehicle or OEA (5 mg per kg at 1900 h) for 7 consecutive days, while measuring body weight, food intake and water intake.

CCCCCCCC/C=C\CCCCCCCC(=O)NCCO [OEA, Z-2-hydroxyethyl octadec-9-enamide]
EC50 (human PPARδ): 1.1 ± 0.1 µM | conditioned taste aversion [1]: little effect | effect on PPARγ (human PPARγ): no effect | food intake 60 min ([2]; OEA 0.4 μg per animal i.c.v.): 4.8 ± 0.4 | food intake 120 min ([2]; OEA 0.4 μg per animal i.c.v.): 6.6 ± 0.4 | food intake 240 min ([2]; OEA 0.4 μg per animal i.c.v.): 8.4 ± 0.4 | food intake 60 min ([2]; OEA 2 μg per animal i.c.v.): 4.9 ± 0.4 | food intake 120 min ([2]; OEA 2 μg per animal i.c.v.): 6.6 ± 0.6 | food intake 240 min ([2]; OEA 2 μg per animal i.c.v.): 8.7 ± 0.5 | food intake 60 min ([2]; OEA 10 μg per animal i.c.v.): 5.9 ± 0.2 | food intake 120 min ([2]; OEA 10 μg per animal i.c.v.): 8.1 ± 0.4 | food intake 240 min ([2]; OEA 10 μg per animal i.c.v.): 9.6 ± 0.7 | effect on food intake after direct injection into the brain ventricles ([2]; i.c.v.): ineffective
